Our source for the IC50 values is patent publication US6815440B2, “Cyclic and heterocyclic N-substituted α-iminohydroxamic and -carboxylic acids” (Aventis Pharma Deutschland GmbH, priority 1995, dated 2004).

Where a name gives a salt, the structure may show the parent alone.

Common to all, as to type: biochemical
In assay [1] the target is T1, catalytic domain of neutrophil collagenase (Homo sapiens, UniProt P22894).
T1 construct: enzymatic activity of the catalytic domains of human stomelysine and of neutrophil collagenase; made in house
T1 sequence (P22894 100-262 limits assumed): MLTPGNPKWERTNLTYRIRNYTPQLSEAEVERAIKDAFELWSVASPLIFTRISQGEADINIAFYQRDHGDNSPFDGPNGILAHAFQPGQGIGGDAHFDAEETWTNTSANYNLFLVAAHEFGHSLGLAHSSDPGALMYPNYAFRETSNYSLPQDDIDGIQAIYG
Description: Enzyme inhibition, catalytic domain of neutrophil collagenase (fluorogenic substrate). The conditions noted are these: hydroxamic acids up to and including Example 33; tris/HCl buffer pH=7.5; read-out: Neutrophil collagenase IC 50. The procedure:
(§1) Preparation and determination of the enzymatic activity of the catalytic domains of human stomelysine and of neutrophil collagenase.
(§2) The two enzymes were prepared according to Ye et al., (Biochemistry 31 (1992) 11231-5). To measure the enzyme activity or enzyme inhibitor action, 70 μl of buffer solution and 10 μl of enzyme solution are incubated for 15 minutes with 10 μl of a 10% strength (v/v) aqueous dimethyl sulfoxide solution, which optionally contains the enzyme inhibitor. After addition of 10 μl of a 10% strength (v/v) aqueous dimethyl sulfoxide solution which contains 1 mmol/l of the substrate, the enzyme reaction is monitored by fluorescence spectroscopy (328 nm (ex)/393 nm(em)). The enzyme activity is shown as extinction increase/minute. […] The buffer solution contains 0.05% of Brij (Sigma, Deisenhofen, Germany) and also 0.1 mol/l of tris/HCl, 0.1 mol/l of NaCl, 0.01 mol/l of CaCl2 (pH=7.5) for the determination of the hydroxamic acids up to and including Example 33, or, for the determination of the carboxylic acids from Example 34, 0.1 mol/l of piperazine-N,N′-bis[2-ethanesulfonic acid] pH=6.5.
(§3) The enzyme solution contains 5 μg/ml of one of the enzyme domains prepared according to Ye et al. The substrate solution contains 1 mmol/l of the fluorogenic substrate (7-methoxycoumarin-4-yl)acetyl-Pro-Leu-Gly-Leu-3-(2′,4′-dinitrophenyl)-L-2,3-diaminopropionyl-Ala-Arg-NH2 (Bachem, Heidelberg, Germany).

Assay [2] addresses T2, catalytic domain of human stromelysine (Homo sapiens, UniProt P08254).
T2 construct: enzymatic activity of the catalytic domains of human stomelysine and of neutrophil collagenase; made in house
Description: Enzyme inhibition, catalytic domain of human stromelysine (fluorogenic substrate). The conditions noted are these: hydroxamic acids up to and including Example 33; tris/HCl buffer pH=7.5; read-out: Stromelysine IC 50. The procedure: as §1, §2, §3

Assay [3] deals with T3, catalytic domain of stromelysine-1 (Homo sapiens, UniProt P08254).
T3 construct: enzymatic activity of the catalytic domains of human stomelysine and of neutrophil collagenase; made in house
T3 sequence (P08254 100-272 limits assumed): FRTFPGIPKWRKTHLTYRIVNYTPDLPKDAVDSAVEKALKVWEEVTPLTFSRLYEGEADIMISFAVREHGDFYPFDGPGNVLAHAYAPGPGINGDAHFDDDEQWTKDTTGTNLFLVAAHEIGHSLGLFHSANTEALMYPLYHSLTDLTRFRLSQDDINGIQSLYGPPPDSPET
The experiment in a line: Proteoglycan degradation assay (bovine aggrecan, ELISA with antibody 5-D-4). As to conditions: bovine nasal proteoglycane, 60 ng stromelysine-1 catalytic domain, MES pH 6.0, RT 3 h. The procedure: In the proteoglycan degradation assay, the extent of the degradation of native bovine aggrecan, the most important proteoglycan of the cartilage, is measured. The released proteoglycan fragments are determined using the monoclonal antibody 5-D-4 which recognizes the keratan sulfate side-chains which are located at the carboxy terminal of the G2 domain of aggrecan. Thus, the assay detects primarily pathologically important degradations which take place in the interglobular domain of aggrecan.
After addition of compounds of the formula I and the enzyme in the form of the catalytic domain of stromelysine-1, the amount of hyaluronic acid-bound aggrecan which remains after degradation is measured. The more aggrecan is detected, the lower the residual activity of the enzyme.
Description of the Test Protocol:
Wells of 96 well microtiter plates (Nunc, Maxisorp) each containing 100 μl of hyaluronic acid solution (25 μg/ml of hyaluronic acid (Sigma) in PBS) are incubated at room temperature (RT) for 12 h. The hyaluronic acid solution is removed by suction and the remaining free protein binding sites of the wells are saturated with in each case […] of a 5% strength solution of bovine serum albumin (BSA), 0.05% of Tween20 in PBS at RT for 1 h. The wells are subsequently covered with proteoglycane by incubating the wells with 100 μl each of a solution of bovine nasal proteoglycane (ICI) (200 μg/ml in 1×PBS, 5 mg/ml of BSA, 0.05% of Tween20) at RT for 1 h. The wells are washed twice with 1×PBS, 0.1% Tween20 to remove the free proteoglycanes. Subsequently, for the actual assay, 60 ng of purified catalytic domain of Stromelysine-1 (for the recombinant expression and purification, see Ye et al. (1992)) plus corresponding concentrations of the inhibitor to be tested in 100 μl of degradation buffer (100 mM MES pH 6.0, 100 mM NaCl, 10 mM CaCl2, 0.05% of Brij) are pipetted into the wells and incubated at RT for 3 h. The wells are washed twice with 1×PBS, 0.1% of Tween20 and then incubated with 100 μl of a solution of the detection antibody (monoclonal antibody done 5-D-4 (ICI), immunoreactive with the keratan sulfate side-chains of the proteoglycane, dilution 1:1000 in 1×PBS, 5 mg/ml BSA, 0.05% Tween20). The wells are washed twice with 1×PBS, 0.1% of Tween20, after which the immune reaction of the bound detection antibodies is carried out using 100 μl per well of an antibody solution for detection (goat anti Maus IgG, labeled with peroxidase (Dianova), diluted 1:1000 in 1×PBS, 5 mg/ml of BSA, 0.05% of Tween20) at RT for 1 h. The wells are again washed twice (as above), and the color reaction is then initiated using 100 μl each of 2 mg/ml of ABTS, activated with H2O2. The reaction products are measured in an ELISA reader at a wavelength of […].

T2 sequence (P08254 100-272 limits assumed): as above

For the compound `CCOC(=O)Oc1ccc2c(c1)CN(S(=O)(=O)c1ccc(OC)cc1)[C@@H](C(=O)NO)C2` [Example 21], the IC50 in assay [1] turned out to be 2 nM; in assay [2], 20 nM; in assay [3], 65 nM.

As to `O=C(NO)[C@H]1Cc2ccccc2CN1S(=O)(=O)c1ccc(Oc2ccccc2)cc1` [Example 13c, R-2-(4-phenoxybenzenesulfonyl)-1,2,3,4-tetrahydroisoquinoline-3-hydroxamic acid], the figures for the IC50 in assay [1], in assay [2] and in assay [3] were 2 nM, 20 nM and 51 nM, respectively.

Consider `COc1ccc(S(=O)(=O)N2Cc3nc[nH]c3C[C@@H]2C(=O)NO)cc1` [Example 29, R-5-(4-methoxybenzenesulfonyl)-4,5,6,7-tetrahydro-1H-imidazo-(4,5-c)-pyridine-6-hydroxamic acid hydrochloride], for which the IC50 is 4 nM in assay [1], 20 nM in assay [2] and 25 nM in assay [3].

Turning to `O=C(c1ccccc1)c1ccc(S(=O)(=O)N2Cc3ccccc3C[C@@H]2C(=O)NO)cc1` [Example 18], the figures for the IC50 in assay [1], in assay [2] and in assay [3] were 3 nM, 30 nM and 41 nM, respectively.

Consider `CN(C)c1ccc(Oc2ccc(S(=O)(=O)N3Cc4ccccc4C[C@@H]3C(=O)NO)cc2)cc1` [Example 14], for which the IC50 in assay [1] is 2 nM; in assay [2], 30 nM; in assay [3], 6.7 nM.

For the compound `O=C(NO)C1Cc2ccccc2CN1S(=O)(=O)c1ccc(-c2ccccc2)cc1` (stereo not drawn) [Example 2], the IC50 in assay [1] is 0.2 nM; in assay [2], 20 nM; in assay [3], 85 nM.

With `O=C(Nc1ccc(S(=O)(=O)N2Cc3ccccc3C[C@@H]2C(=O)NO)cc1)OCc1ccccc1` [Example 9], the IC50 in assay [1] is 800 nM; in assay [2], 400 nM; in assay [3], 1600 nM.
